Where two headings read alike, the source gives them in different places.
Biological target: T1, AKR1C1 (Homo sapiens, UniProt Q04828)
T1 construct: made in house
T1 sequence (Q04828 1-323): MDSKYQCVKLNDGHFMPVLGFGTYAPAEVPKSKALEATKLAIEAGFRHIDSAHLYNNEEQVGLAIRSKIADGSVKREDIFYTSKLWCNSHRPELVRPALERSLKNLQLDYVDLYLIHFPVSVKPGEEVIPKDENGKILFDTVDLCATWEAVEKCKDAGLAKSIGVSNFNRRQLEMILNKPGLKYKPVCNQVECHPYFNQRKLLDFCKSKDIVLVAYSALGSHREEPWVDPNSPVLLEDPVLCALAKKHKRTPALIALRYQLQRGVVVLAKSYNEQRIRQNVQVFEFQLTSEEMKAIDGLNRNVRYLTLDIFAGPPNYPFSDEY
Experiment: Inhibition of recombinant AKR1C1, oxidation of 1-acenaphthenol, progress-curve analysis
Assay type: biochemical
Conditions: for k+2: irreversible binding of second inhibitor molecule to E-NAD-I; for k+3: irreversible binding of second inhibitor molecule to E-NADH-I
Procedure: To investigate the effect of ten selected ruthenium compounds, we measured their effect on the time course of oxidation of the artificial substrate 1-acenaphtenol by recombinant enzymes AKR1C1–3. The recombinant enzymes AKR1C1–AKR1C3 were prepared as described previously ([Brozic et al., 2006]). Since the artificial substrate is racemic, the oxidation follows a double exponential pattern as described previously ([Traven et al., 2015]). The in vitro catalytic activity of AKR1C1–3 enzymes was determined spectrophotometrically by monitoring the increase in NADH absorbance at 340 nm (ε(λ340) = 6220 M^−1cm^−1) in the presence of the substrate 1-acenaphthenol. Enzymatic reactions (300 µL) were performed in 100 mm potassium phosphate buffer (pH 9.0), 0.005% (v/v) TritonX-114, 5% (v/v) DMSO, containing 2.3 mm NAD^+ and 1-acenaphthenol at final concentrations of 90, 180, and 250 µM for AKR1C1, AKR1C2, and AKR1C3, respectively. A total of 5 µL of a tested compound in DMSO was added to the reaction mixture. The final concentrations of the tested compounds ranged from 1 to 200 μM, depending on the extent of inhibition (Supplementary Data). The reaction was started by adding 15 µL of AKR1C1, AKR1C2, or AKR1C3 dissolved in 1x PBS (pH 7.3) at final concentrations of 0.11, 0.16, and 1.5 µM, respectively. AKR1C1–3 activity was measured at 37°C for 3 h without shaking using a PowerWave XS microplate reader (Biotek; Winooski, VT, United States). Measurements at seven different concentrations were performed in duplicates or triplicates (Supplementary Figures S2). To mechanistically explain all the obtained progress curves for each ruthenium complex on each enzyme by a common reaction scheme, we extended the originally proposed scheme so that the interaction of the ruthenium complex with apo- and holoenzyme was allowed to be rapid and followed by a slow irreversible association of a second ruthenium complex molecule. However, the affinity of the Ru complexes for the apoenzymes was much lower so this part was excluded from the proposed kinetic model for clarity (Figure 4).
FIGURE 4 Reaction scheme for the oxidation of 1-acenaphtenol by AKR1C1-3 and its inhibition by ruthenium compounds. E represents apoenzyme, E-NAD and E-NADH represent holoenzyme with bound NAD^+ and NADH, respectively. A and B are enantiomers of substrate 1-acenaphtenol. Symbols which include I (ruthenium compound) represent holoenzyme in complex with one or two inhibitor molecules. KNAD, KNADH, and K2-3 are equilibrium constants and k+2–3 are second-order association rate constants for the binding of the second inhibitor molecule to the enzyme. The progress curves for each enzyme in the presence of ruthenium complexes were analyzed by the WEB server ENZO (https://enzo.cmm.ki.si/) designed exactly for such purposes ([Bevc et al., 2011]).

[1] = reversible binding to holoenzyme E-NAD, read-out: K2
[2] = reversible binding to holoenzyme E-NADH, read-out: K3

SMILES | inhibitory effect (in words) | irreversible inhibition (in words) | Ki [1] [nM] | k+2 [M⁻¹ s⁻¹] | k+3 [M⁻¹ s⁻¹] | Ki [2] [nM]
Cc1ccc(C(C)C)cc1.O=[N+]([O-])c1ccc([O][Ru][Cl])c2ncccc12 [Compound 9, (η ^6-p-Cymene) (nitroxolinato)chloridoruthenium (II)] | very weak inhibitory effect | virtually no irreversible inhibition | 227000 |  |  | 
C1N2CN3CN1CP(C2)C3.Cc1ccc(C(C)C)cc1.F[P-](F)(F)(F)(F)F.O=C(C=C([O][Ru+])c1ccc2c(c1)OCO2)C(F)(F)F [Compound 6] |  |  | 3100 | 48.8 |  | 
C1N2CN3CN1CP(C2)C3.Cc1ccc(C(C)C)cc1.F[P-](F)(F)(F)(F)F.O=[N+]([O-])c1ccc([O][Ru+])c2ncccc12 [Compound 10, (η ^6-p-cymene)(nitroxolinato)(pta)ruthenium(II) hexafluorophosphate] |  |  | 49700 | 13.5 |  | 
C1N2CN3CN1CP(C2)C3.Cc1ccc(C(C)C)cc1.F[P-](F)(F)(F)(F)F.O=C(C=C([O][Ru+])c1ccc(I)cc1)C(F)(F)F [Compound 2] |  |  | 2800 | 25.9 |  | 
Cc1ccc(C(C)C)cc1.O=C(C=C([O][Ru][Cl])c1ccc(I)cc1)C(F)(F)F [Compound 1] |  |  |  |  | 9.4 | 21.4
CN(C)c1ccc(C(=CC(=O)C(F)(F)F)[O][Ru][Cl])cc1.Cc1ccc(C(C)C)cc1 [Compound 3, (η^6-p-cymene)chlorido(4,4,4-trifluoro-1-(4-(dimethylamino)phenyl)-1,3-butandionato)ruthenium(II)] |  |  | 107000 | 31.5 | 4.3 | 42.9
C1N2CN3CN1CP(C2)C3.Cc1ccc(C(C)C)cc1.F[P-](F)(F)(F)(F)F.[O-]c1c(I)cc(Cl)c2cccnc12.[Ru+2] [Compound 8] |  |  | 350 |  |  | 
Cc1ccc(C(C)C)cc1.[Cl-].[O-]c1c(I)cc(Cl)c2cccnc12.[Ru+2] [Compound 7] |  |  |  |  | 17.1 | 345
Cc1ccc(C(C)C)cc1.O=C(C=C([O][Ru][Cl])c1ccc2c(c1)OCO2)C(F)(F)F [Compound 5] |  |  |  |  | 6.0 | 23.5
